Ends that are not written are not given here.
Tested on: EAE
Parameters: species or system New Zealand white rabbits
Conditions: rabbit, in vivo
Protocol: The emulsion was injected SC in multiple sites in the dorsal area of the neck and the tail. Rabbits were immunized either with the free peptide or with peptide conjugated to KLH. […] All rabbits were bled via the ear vein after they were placed in restraining cages and tranquilized with ace-promozine. To prevent hypovolemia, the amount of blood removed was replaced with sterile saline. Sera from individual rats or rabbits were prepared from clotted blood by centrifugation. All sera were decomplemented for 30 minutes at 56°C and frozen in small aliquots to which sodium azide was added.

Clinical Signs of EAE: None
Sequence: DMGHGLRLIHYSYDVNSTEKG [TCR Vβ8(39-59)]

Source: EP0552142B2, “T CELL RECEPTOR PEPTIDES AS THERAPEUTICS FOR AUTOIMMUNE AND MALIGNANT DISEASE” (priority 1989, dated 1991)
